Reference: patent US7994172B2, “[1H-pyrazolo[3, 4-D]pyrimidin-4-yl]-piperidine or -piperazine compounds as serine-theoronine kinase modulators (P70s6k, Atk1 and Atk2) for the treatment of immunological, inflammatory and proliferative diseases” (Exelixis, Inc., priority 2004, dated 2011)

How the values were obtained:
[1] = biological target: T1, human p70S6 kinase (p70S6K, kinase domain residues 1-421, T412E mutation) (Homo sapiens, UniProt P23443, T412E); test: p70S6 kinase assay, Luciferase-Coupled Chemiluminescent Kinase assay (LCCA); type: biochemical; conditions: 5 μM ATP, 12 nM p70S6K; read-out: p70S6K inhibition IC50
T1 construct: human p70S6 kinase domainresidues 1-421, containing a T412E mutation; made in house
T1 sequence (P23443 1-421 T412E): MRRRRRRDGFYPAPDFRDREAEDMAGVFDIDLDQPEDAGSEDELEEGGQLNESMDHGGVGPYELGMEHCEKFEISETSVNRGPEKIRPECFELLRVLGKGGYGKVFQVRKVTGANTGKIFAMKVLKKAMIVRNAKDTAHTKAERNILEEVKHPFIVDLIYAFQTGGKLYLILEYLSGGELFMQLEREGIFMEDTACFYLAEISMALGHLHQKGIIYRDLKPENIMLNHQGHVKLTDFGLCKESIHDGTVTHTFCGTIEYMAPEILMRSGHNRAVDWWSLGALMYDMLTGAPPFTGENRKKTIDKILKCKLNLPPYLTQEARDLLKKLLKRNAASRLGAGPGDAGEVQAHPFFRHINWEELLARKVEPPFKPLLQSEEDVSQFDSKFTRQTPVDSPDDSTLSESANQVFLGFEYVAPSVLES
Description: (§1) Kinase activity and compound inhibition are investigated using one or more of the three assay formats described below. The ATP concentrations for each assay are selected to be close to the Michaelis-Menten constant (KM) for each individual kinase. Dose-response experiments are performed at 10 different inhibitor concentrations in a 384-well plate format. The data are fitted to four-parameter equation (2) below; where Y is the observed signal, X is the inhibitor concentration, Min is the background signal in the absence of enzyme (0% enzyme activity), Max is the signal in the absence of inhibitor (100% enzyme activity), IC50 is the inhibitor concentration at 50% enzyme inhibition and H represents the empirical Hill's slope to measure the cooperativity. Typically H is close to unity. Y=Min+(Max−Min)/(1+(X/IC50)^H) Equation (2) p70S6 Kinase Assay
Biochemical activity of p70S6 kinase was assessed using a Luciferase-Coupled Chemiluminescent Kinase assay (LCCA) format. Kinase activity was measured as the percent ATP remaining following the kinase reaction. Remaining ATP was detected by luciferase-luciferin-coupled chemiluminescence. Specifically, the reaction was initiated by mixing test compounds, 5 μM ATP, 5 μM RRRLSSLRA peptide and 12 nM p70S6K (baculovirus expressed human p70S6 kinase domainresidues 1-421, containing a T412E mutation) in a 20 uL assay buffer (20 mM Tris-HCL pH 7.5, 10 mM MgCl2, 0.02% Triton X-100, 100 mM DTT, 2 mM MnCl2). The mixture is incubated at ambient temperature for 2 hours after which 20 μL luciferase-luciferin mix is added and the chemiluminescent signal read using a Wallac Victor^2 reader. The luciferase-luciferin mix consists of 50 mM HEPES, pH 7.8, 8.5 μg/mL oxalic acid (pH 7.8), 5 (or 50) mM DTT, 0.4% Triton X-100, 0.25 mg/mL coenzyme A, 63 uM AMP, 28 μg/mL luciferin and 40,000 units/mL luciferase.

[2] = biological target: T2, human Akt1 kinase (kinase domain residues R144-A480, activated with PDK1) (Homo sapiens, UniProt P31749); test: Akt1 kinase assay, Luciferase-Coupled Chemiluminescent Kinase assay (LCCA); type: biochemical; conditions: 1 μM ATP, 1.3 nM Akt1; read-out: Akt-1 inhibition IC50
T2 construct: made in house
T2 sequence (P31749 144-480): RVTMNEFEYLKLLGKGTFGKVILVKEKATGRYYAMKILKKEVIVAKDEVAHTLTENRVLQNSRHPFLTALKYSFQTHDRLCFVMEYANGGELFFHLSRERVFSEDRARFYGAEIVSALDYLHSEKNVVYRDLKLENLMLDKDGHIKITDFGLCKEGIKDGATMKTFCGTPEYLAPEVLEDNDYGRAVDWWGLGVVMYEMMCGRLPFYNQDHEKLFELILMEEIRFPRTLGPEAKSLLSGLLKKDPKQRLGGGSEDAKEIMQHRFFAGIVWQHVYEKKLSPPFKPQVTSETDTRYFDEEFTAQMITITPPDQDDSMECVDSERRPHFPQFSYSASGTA
Description: as §1
Biochemical activity of Akt1 kinase was assessed using a Luciferase-Coupled Chemiluminescent Kinase assay (LCCA) format. Kinase activity was measured as the percent ATP remaining following the kinase reaction. Remaining ATP was detected by luciferase-luciferin-coupled chemiluminescence. Specifically, the reaction was initiated by mixing test compounds, 1 μM ATP, 5 μM crosstide peptide and 1.3 nM Akt1 (baculovirus expressed human Akt1 kinase domain residues R144-A480, activated with PDK1) in a 20 uL assay buffer (20 mM Tris-HCL pH 7.5, 10 mM MgCl2, 0.01% Triton X-100, 1 mM DTT, 3 mM MnCl2). The mixture is incubated at ambient temperature for 3 hours after which 20 μL luciferase-luciferin mix is added and the chemiluminescent signal read using a Wallac Victor2 reader. The luciferase-luciferin mix consists of 50 mM HEPES, pH 7.8, 8.5 μg/mL oxalic acid (pH 7.8), 5 (or 50) mM DTT, 0.4% Triton X-100, 0.25 mg/mL coenzyme A, 63 uM AMP, 28 μg/mL luciferin and 40,000 units/mL luciferase.

Which IC50 [1] does the source give for `OC(c1ccc(Cl)cc1)C1CCN(c2ncnc3[nH]nc(Br)c23)CC1` (centres unmarked) [Entry 1, [1-(3-bromo-1H-pyrazolo[3,4-d]pyrimidin-4-yl)piperidin-4-yl](4-chlorophenyl)methanol] here?
The IC50 was less than 50 nM.

What about the IC50 [2] of the same molecule?
Its IC50 is less than 50 nM.

How did the IC50 [1] turn out when `CN(C)CCCOC(c1ccc(Cl)cc1)C1CCN(c2ncnc3[nH]nc(Br)c23)CC1` (centres unmarked) [Entry 3, 3-{[[1-(3-bromo-1H-pyrazolo[3,4-d]pyrimidin-4-yl)piperidin-4-yl](4-chlorophenyl)methyl]oxy}-N,N-dimethylpropan-1-amine] was run?
The IC50 was less than 50 nM.

And the IC50 [2]?
Its IC50 is less than 50 nM.

Which results are given for `Brc1ccc(CN2CCN(c3ncnc4[nH]nc(Br)c34)CC2)cc1` [Entry 4, 3-bromo-4-{4-[(4-bromophenyl)methyl]piperazin-1-yl}-1H-pyrazolo[3,4-d]pyrimidine]?
IC50 [1]: < 50 nM; IC50 [2]: 50 to 500 nM

`OCC1CN(c2ncnc3[nH]nc(Br)c23)CCN1Cc1ccc(Cl)cc1` (centres unmarked) [Entry 5, {4-(3-bromo-1H-pyrazolo[3,4-d]pyrimidin-4-yl)-1-[(4-chlorophenyl)methyl]piperazin-2-yl}methanol] was tested. Which IC50 [1] did it give?
Its IC50 is less than 50 nM.

What about the IC50 [2] of the same molecule?
The IC50 was 50 to 500 nM.

How did the IC50 [1] turn out when `CCN(CC)CCNC(c1ccc(Cl)cc1)C1CCN(c2ncnc3[nH]nc(Br)c23)CC1` (centres unmarked) [Entry 6, N′-[[1-(3-bromo-1H-pyrazolo[3,4-d]pyrimidin-4-yl)piperidin-4-yl](4-chlorophenyl)methyl]-N,N-diethylethane-1,2-diamine] was run?
The IC50 was less than 50 nM.

And the IC50 [2]?
The IC50 was less than 50 nM.

With `O=C1CN(c2ncnc3[nH]nc(Br)c23)CCN1Cc1ccc(Cl)cc1` [Entry 8, 4-(3-bromo-1H-pyrazolo[3,4-d]pyrimidin-4-yl)-1-[(4-chlorophenyl)methyl]piperazin-2-one] as the molecule, how does the IC50 [1] read?
The IC50 was less than 50 nM.

What about the IC50 [2] of the same molecule?
Its IC50 is 50 to 500 nM.

What does the source list for `CN(C)CCNC(=O)C(c1ccc(Cl)cc1)N1CCN(c2ncnc3[nH]nc(Br)c23)CC1` (centres unmarked) [Entry 9, 2-[4-(3-bromo-1H-pyrazolo[3,4-d]pyrimidin-4-yl)piperazin-1-yl]-2-(4-chlorophenyl)-N-[2-(dimethylamino)ethyl]acetamide]?
IC50 [1]: < 50 nM; IC50 [2]: < 50 nM

What does the source list for `CCN(CC)CCCN(c1ccc(Cl)cc1)C1CCN(c2ncnc3[nH]nc(Br)c23)CC1` [Entry 10, N-[1-(3-bromo-1H-pyrazolo[3,4-d]pyrimidin-4-yl)piperidin-4-yl]-N-(4-chlorophenyl)-N′,N′-diethylpropane-1,3-diamine]?
IC50 [1]: < 50 nM; IC50 [2]: < 50 nM

Which IC50 [1] does the source give for `CN(C)CCNC(=O)N(c1ccc(Cl)cc1)C1CCN(c2ncnc3[nH]nc(Br)c23)CC1` [Entry 12, N-[1-(3-bromo-1H-pyrazolo[3,4-d]pyrimidin-4-yl)piperidin-4-yl]-N-(4-chlorophenyl)-N′-[2-(dimethylamino)ethyl]urea] here?
Its IC50 is less than 50 nM.

What about the IC50 [2] of the same molecule?
Its IC50 is less than 50 nM.

With `CN(C)CCNC(=O)NC(c1ccc(Cl)cc1)C1CCN(c2ncnc3[nH]nc(Br)c23)CC1` (centres unmarked) [Entry 13, N-[[1-(3-bromo-1H-pyrazolo[3,4-d]pyrimidin-4-yl)piperidin-4-yl](4-chlorophenyl)methyl]-N′-[2-(dimethylamino)ethyl]urea] as the molecule, how does the IC50 [1] read?
Its IC50 is less than 50 nM.

What about the IC50 [2] of the same molecule?
The IC50 was less than 50 nM.

What does the source list for `CN(C)CCNC(=O)C(c1ccc(Cl)cc1)N1CCN(c2ncnc3[nH]nc(Br)c23)CC1=O` (centres unmarked) [Entry 14, 2-[4-(3-bromo-1H-pyrazolo[3,4-d]pyrimidin-4-yl)-2-oxopiperazin-1-yl]-2-(4-chlorophenyl)-N-[2-(dimethylamino)ethyl]acetamide]?
IC50 [1]: < 50 nM; IC50 [2]: < 50 nM

For `CN(C)CCOC(=O)N(c1ccc(Cl)cc1)C1CCN(c2ncnc3[nH]nc(Br)c23)CC1` [Entry 15, 2-(dimethylamino)ethyl [1-(3-bromo-1H-pyrazolo[3,4-d]pyrimidin-4-yl)piperidin-4-yl](4-chlorophenyl)carbamate], which IC50 [1] is on record?
Its IC50 is less than 50 nM.

What about the IC50 [2] of the same molecule?
The IC50 was less than 50 nM.

What does the source list for `Fc1cc(CN2CCN(c3ncnc4[nH]nc(Br)c34)CC2)ccc1Cl` [Entry 16, 3-bromo-4-{4-[(4-chloro-3-fluorophenyl)methyl]piperazin-1-yl}-1H-pyrazolo[3,4-d]pyrimidine]?
IC50 [1]: < 50 nM; IC50 [2]: 50 to 500 nM

For `Fc1cc(Cl)ccc1CN1CCN(c2ncnc3[nH]nc(Br)c23)CC1` [Entry 17, 3-bromo-4-{4-[(4-chloro-2-fluorophenyl)methyl]piperazin-1-yl}-1H-pyrazolo[3,4-d]pyrimidine], which IC50 [1] is on record?
Its IC50 is less than 50 nM.

And the IC50 [2]?
Its IC50 is 50 to 500 nM.

For `CCN(CC)CCN(c1ccc(Cl)cc1)C1CCN(c2ncnc3[nH]nc(Br)c23)CC1` [Entry 18, N-[1-(3-bromo-1H-pyrazolo[3,4-d]pyrimidin-4-yl)piperidin-4-yl]-N-(4-chlorophenyl)-N′,N′-diethylethane-1,2-diamine], which IC50 [1] is on record?
Its IC50 is less than 50 nM.

And the IC50 [2]?
The IC50 was less than 50 nM.

Which results are given for `O=C(c1ccc(F)cc1)C1CCN(c2ncnc3[nH]nc(Br)c23)CC1` [Entry 20, [1-(3-bromo-1H-pyrazolo[3,4-d]pyrimidin-4-yl)piperidin-4-yl](4-fluorophenyl)methanone]?
IC50 [1]: < 50 nM; IC50 [2]: < 50 nM

With `CCN(CC)CCN(C)C(c1ccc(Cl)cc1)C1CCN(c2ncnc3[nH]nc(Br)c23)CC1` (centres unmarked) [Entry 21, N-[[1-(3-bromo-1H-pyrazolo[3,4-d]pyrimidin-4-yl)piperidin-4-yl](4-chlorophenyl)methyl]-N′,N′-diethyl-N-methylethane-1,2-diamine] as the molecule, how does the IC50 [1] read?
The IC50 was less than 50 nM.

What about the IC50 [2] of the same molecule?
The IC50 was less than 50 nM.

Which results are given for `OC(c1ccc(F)cc1)C1CCN(c2ncnc3[nH]nc(Br)c23)CC1` (centres unmarked) [Entry 22, [1-(3-bromo-1H-pyrazolo[3,4-d]pyrimidin-4-yl)piperidin-4-yl](4-fluorophenyl)methanol]?
IC50 [1]: < 50 nM; IC50 [2]: 50 to 500 nM

For `Fc1cc(C(F)(F)F)ccc1CN1CCN(c2ncnc3[nH]nc(Br)c23)CC1` [Entry 23, 3-bromo-4-(4-{[2-fluoro-4-(trifluoromethyl)phenyl]methyl}piperazin-1-yl)-1H-pyrazolo[3,4-d]pyrimidine], which IC50 [1] is on record?
Its IC50 is less than 50 nM.

What about the IC50 [2] of the same molecule?
Its IC50 is 50 to 500 nM.

`CCN(CC)CCC(=O)N(c1ccc(Cl)cc1)C1CCN(c2ncnc3[nH]nc(Br)c23)CC1` [Entry 24, N-[1-(3-bromo-1H-pyrazolo[3,4-d]pyrimidin-4-yl)piperidin-4-yl]-N-(4-chlorophenyl)-N~3~,N~3~-diethyl-beta-alaninamide] was tested. Which IC50 [1] did it give?
Its IC50 is less than 50 nM.

What about the IC50 [2] of the same molecule?
The IC50 was less than 50 nM.

With `CN(C)CCOC(c1ccc(F)cc1)C1CCN(c2ncnc3[nH]nc(Br)c23)CC1` (centres unmarked) [Entry 25, 2-{[[1-(3-bromo-1H-pyrazolo[3,4-d]pyrimidin-4-yl)piperidin-4-yl](4-fluorophenyl)methyl]oxy}-N,N-dimethylethanamine] as the molecule, how does the IC50 [1] read?
The IC50 was less than 50 nM.

And the IC50 [2]?
Its IC50 is less than 50 nM.

Which results are given for `CCN(CC)CCC(=O)NC(c1ccc(Cl)cc1)C1CCN(c2ncnc3[nH]nc(Br)c23)CC1` (stereo not drawn) [Entry 26, N-[[1-(3-bromo-1H-pyrazolo[3,4-d]pyrimidin-4-yl)piperidin-4-yl](4-chlorophenyl)methyl]-N~3~,N~3~-diethyl-beta-alaninamide]?
IC50 [1]: < 50 nM; IC50 [2]: < 50 nM

With `CN(C)CCNC(=O)C(=O)N(c1ccc(Cl)cc1)C1CCN(c2ncnc3[nH]nc(Br)c23)CC1` [Entry 28, N-[1-(3-bromo-1H-pyrazolo[3,4-d]pyrimidin-4-yl)piperidin-4-yl]-N-(4-chlorophenyl)-N′-[2-(dimethylamino)ethyl]ethanediamide] as the molecule, how does the IC50 [1] read?
Its IC50 is less than 50 nM.

And the IC50 [2]?
The IC50 was less than 50 nM.

How did the IC50 [1] turn out when `CCN(CC)CCS(=O)(=O)N(c1ccc(Cl)cc1)C1CCN(c2ncnc3[nH]nc(Br)c23)CC1` [Entry 29, N-[1-(3-bromo-1H-pyrazolo[3,4-d]pyrimidin-4-yl)piperidin-4-yl]-N-(4-chlorophenyl)-2-(diethylamino)ethanesulfonamide] was run?
The IC50 was less than 50 nM.

What about the IC50 [2] of the same molecule?
The IC50 was less than 50 nM.

`C=CCCC(=O)N(c1ccc(Cl)cc1)C1CCN(c2ncnc3[nH]nc(Br)c23)CC1` [Entry 35, N-[1-(3-bromo-1H-pyrazolo[3,4-d]pyrimidin-4-yl)piperidin-4-yl]-N-(4-chlorophenyl)pent-4-enamide] was tested. Which IC50 [1] did it give?
The IC50 was less than 50 nM.

And the IC50 [2]?
The IC50 was 50 to 500 nM.
